Consider two molecules from patent US9241954B2, “Lipopolysaccharide of ochrobactrum intermedium and their use as immunostimulant of mammalians” (LABORATORIOS OVEJERO, S.A., priority 2009, dated 2016).

In data set [1] the test system is severe sepsis patients. As to conditions: cited from earlier work.
The test system of data set [2] is CD8 and CD4 T-cells (spleen cells).

For `CCOC(=O)C1=CCCC[C@H]1S(=O)(=O)Nc1ccc(F)cc1Cl` [TAK-242], the proinflammatory cytokine levels entry in data set [1] (human, in vivo) is “decrease proinflammatory cytokine levels”. Moreover, the mortality result in data set [1] (severe sepsis patients (TAK-242: subgroup with high IL-6 levels)) is on record as “decrease mortality”.

Turning to “Lipopolysaccharide from Ochrobactrum intermedium strain LMG3306 [IM]”, in data set [2], the “toxicity for CD8 and CD4 T-cells / spleen cells” value is listed as “no toxic at all”.
